Experimental data: US12545677B2, “Compounds useful as factor XIa inhibitors” (JANSSEN PHARMACEUTICA NV, priority 2020, dated 2026)

Tests used:
Experiment in all cases: Human liver microsomes CYP450 cocktail inhibition assay
Assay type in all cases: in vitro ADME
CYP2C9 = target: T1, CYP2C9 (Homo sapiens, UniProt P11712); conditions: HLM 0.2 mg/ml, 10 mins; read-out: Calculated IC50, HLM 2C9
T1 construct: Frozen human liver microsomes (HLM) were thawed at 37° C; from tissue; host or cells: human liver microsomes
Excerpt: (§1) Human Liver Microsomes CYP450 Cocktail Inhibition Assay
(§2) The cocktail DDI assay was used to evaluate test compound(s) for potential to cause drug-drug interactions via inhibition of clinically important P450 isoforms (CYP1A2, 2C8, 2C9, 2C19, 2D6, and 3A4) in early discovery. Discrimination of the inhibitory potential of the test compound towards each isoform was achieved by using a cocktail of specific probe substrates which are known to be selectively metabolized to defined metabolites by the isoforms under investigation. For example, dextromethorphan is known to be demethylated exclusively by the 2D6 isoform. Co-incubation of the probe substrates in human liver microsomes (HLM) with the test compound(s) at a range of inhibitor concentrations allows calculation of IC50 values for multiple CYP isoforms simultaneously and therefore offers a higher throughput compared to a traditional single probe assay.
(§3) Methods and Procedures: Final protein concentration in the incubation was 0.2 mg/ml and incubation time was 10 mins. The final total solvent in the incubation was 0.15% DMSO and 0.8% acetonitrile. The assay was automated on a Beckman Biomek FX automated liquid handler with multi-channel pipetting tools (8-channel and 96-channel), on deck reagent cooling capabilities and integrated automated Cytomat incubator (37° C.) with plate shaking facilities (Kendro).
(§4) Test compounds were supplied as 5 mM DMSO stock solutions. 0.1 M Phosphate buffer (pH7.4) was prepared in house using Na2HPO4·12H2O and KH2PO4.
(§5) Frozen human liver microsomes (HLM) were thawed at 37° C. while agitating regularly until the whole volume was thawed, then held on ice. Based on the protein concentration of the HLM batch, the suspension was further diluted in assay buffer and the probe substrate mixture (substrate for each CYP isoform) to yield the final protein concentration of 0.2 mg/mL.
(§6) Probe substrates were prepared separately in assay buffer (phenacetin, tolbutamide, S-mephenytoin, dextromethorphan) or water (amodiaquine, midazolam). These were combined (at the appropriate conc per substrate) with HLM and assay buffer to yield the final Enzyme/Substrate mix.
(§7) The final total solvent in the incubation was 0.15% DMSO and 0.8% acetonitrile. NADPH (5.27 mM) was prepared as a solution in assay buffer (Room Temp). The quenching solution containing deuterated analogues of each of the seven probe substrate metabolites was dissolved at an appropriate concentration in acetonitrile.
(§8) Assay procedure: Samples for incubation were prepared by combining appropriate volumes of Enzyme/Substrate mix (80 μl) and stock solutions of test or reference inhibitors (1 μl solutions added from a dilution series). Following a pre-incubation period (typically, 10 minutes), the reaction was initiated by the addition of NADPH solution (19 μl, 5.27 mM). The samples were incubated at 37° C. for 10 mins. The incubations were quenched by the addition of 1.6 volumes of chilled quenching solution. The incubations were then centrifuged for 10 minutes at 4000 rpm at 4° C. A defined volume of the supernatant (S/N) was transferred into a separate container and diluted with water (S/N: Water=60 μL/180 μL). Each sample was injected onto a UPLC/MS system using an LC/MS method selective for the simultaneous measurement of all seven probe substrate metabolites (and associated deuterated internal standards).
(§9) Calculations and Formulas: Percentage activity was calculated as % activity=(Ri/R)*100 • where Ri and R were the metabolite to internal standard peak area ratios in the presence and absence of TC, respectively. The percentage activity data were then plotted against log (TC concentration) and a curve was fitted to the data to return the IC50 using a data reduction tool within 3DX. […]

CYP2C8 = target: T2, CYP2C8 (Homo sapiens, UniProt P10632); conditions: HLM 0.2 mg/ml, 10 mins; read-out: Calculated IC50, HLM 2C8
T2 construct: Frozen human liver microsomes (HLM) were thawed at 37° C; from tissue; host or cells: human liver microsomes
T2 sequence (P10632 1-490): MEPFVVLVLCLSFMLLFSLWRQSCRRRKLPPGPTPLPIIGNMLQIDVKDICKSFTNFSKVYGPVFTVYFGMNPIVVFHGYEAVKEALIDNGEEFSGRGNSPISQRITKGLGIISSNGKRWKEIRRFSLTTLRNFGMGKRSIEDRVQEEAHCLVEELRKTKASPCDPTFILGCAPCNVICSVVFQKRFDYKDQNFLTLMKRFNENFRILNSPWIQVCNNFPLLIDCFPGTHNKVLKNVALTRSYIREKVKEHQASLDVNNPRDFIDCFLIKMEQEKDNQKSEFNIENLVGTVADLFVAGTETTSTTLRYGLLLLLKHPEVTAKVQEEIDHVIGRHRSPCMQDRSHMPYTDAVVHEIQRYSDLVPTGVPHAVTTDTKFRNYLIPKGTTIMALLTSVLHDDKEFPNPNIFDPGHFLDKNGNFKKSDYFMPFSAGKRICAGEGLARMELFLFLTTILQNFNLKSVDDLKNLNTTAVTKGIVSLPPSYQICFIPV
Excerpt: as §1, §2, §3, §4, §5, §6, §7, §8, §9

CYP2D6 = target: T3, CYP2D6 (Homo sapiens, UniProt P10635); conditions: HLM 0.2 mg/ml, 10 mins; read-out: Calculated IC50, HLM 2D6
T3 construct: Frozen human liver microsomes (HLM) were thawed at 37° C; from tissue; host or cells: human liver microsomes
Excerpt: as §1, §2, §3, §4, §5, §6, §7, §8, §9

CYP2C19 = target: T4, CYP2C19 (Homo sapiens, UniProt P33261); conditions: HLM 0.2 mg/ml, 10 mins; read-out: Calculated IC50, HLM 2C19
T4 construct: Frozen human liver microsomes (HLM) were thawed at 37° C; from tissue; host or cells: human liver microsomes
Excerpt: as §1, §2, §3, §4, §5, §6, §7, §8, §9

CYP1A2 = target: T5, CYP1A2 (Homo sapiens, UniProt P05177); conditions: HLM 0.2 mg/ml, 10 mins; read-out: Calculated IC50, HLM 1A2
T5 construct: Frozen human liver microsomes (HLM) were thawed at 37° C; from tissue; host or cells: human liver microsomes
T5 sequence (P05177 1-516): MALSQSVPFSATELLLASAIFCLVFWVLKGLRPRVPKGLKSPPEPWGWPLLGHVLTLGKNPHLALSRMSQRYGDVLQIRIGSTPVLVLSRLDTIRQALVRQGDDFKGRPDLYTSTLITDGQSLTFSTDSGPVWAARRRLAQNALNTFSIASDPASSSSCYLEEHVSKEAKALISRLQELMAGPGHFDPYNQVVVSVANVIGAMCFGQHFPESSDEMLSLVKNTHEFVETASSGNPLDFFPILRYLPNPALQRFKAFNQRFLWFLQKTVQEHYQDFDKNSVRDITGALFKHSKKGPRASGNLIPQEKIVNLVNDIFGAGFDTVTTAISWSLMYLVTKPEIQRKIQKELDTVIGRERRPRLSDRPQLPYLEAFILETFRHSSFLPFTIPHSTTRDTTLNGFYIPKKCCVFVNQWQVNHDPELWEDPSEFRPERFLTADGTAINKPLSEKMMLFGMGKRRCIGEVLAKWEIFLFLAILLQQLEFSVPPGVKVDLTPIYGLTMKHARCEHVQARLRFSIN
Excerpt: as §1, §2, §3, §4, §5, §6, §7, §8, §9

CYP3A4 = target: T6, CYP3A4 (Homo sapiens, UniProt P08684); conditions: HLM 0.2 mg/ml, 10 mins; read-out: Calculated IC50, HLM 3A4
T6 construct: Frozen human liver microsomes (HLM) were thawed at 37° C; from tissue; host or cells: human liver microsomes
Excerpt: as §1, §2, §3, §4, §5, §6, §7, §8, §9

T3 sequence (P10635 whole entry): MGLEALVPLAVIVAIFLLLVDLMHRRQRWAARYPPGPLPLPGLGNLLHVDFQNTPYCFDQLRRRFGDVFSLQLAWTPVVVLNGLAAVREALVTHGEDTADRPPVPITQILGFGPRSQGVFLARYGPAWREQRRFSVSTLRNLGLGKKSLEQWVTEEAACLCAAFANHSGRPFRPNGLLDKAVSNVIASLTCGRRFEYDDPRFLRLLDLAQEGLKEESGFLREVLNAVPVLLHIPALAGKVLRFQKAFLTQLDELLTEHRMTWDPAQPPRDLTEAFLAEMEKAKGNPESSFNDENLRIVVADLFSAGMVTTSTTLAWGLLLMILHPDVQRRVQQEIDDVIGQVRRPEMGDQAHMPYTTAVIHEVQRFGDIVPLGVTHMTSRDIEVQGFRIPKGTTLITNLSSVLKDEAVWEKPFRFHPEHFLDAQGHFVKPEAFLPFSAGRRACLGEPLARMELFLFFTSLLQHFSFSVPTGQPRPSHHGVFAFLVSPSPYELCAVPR
T1 sequence (P11712 whole entry): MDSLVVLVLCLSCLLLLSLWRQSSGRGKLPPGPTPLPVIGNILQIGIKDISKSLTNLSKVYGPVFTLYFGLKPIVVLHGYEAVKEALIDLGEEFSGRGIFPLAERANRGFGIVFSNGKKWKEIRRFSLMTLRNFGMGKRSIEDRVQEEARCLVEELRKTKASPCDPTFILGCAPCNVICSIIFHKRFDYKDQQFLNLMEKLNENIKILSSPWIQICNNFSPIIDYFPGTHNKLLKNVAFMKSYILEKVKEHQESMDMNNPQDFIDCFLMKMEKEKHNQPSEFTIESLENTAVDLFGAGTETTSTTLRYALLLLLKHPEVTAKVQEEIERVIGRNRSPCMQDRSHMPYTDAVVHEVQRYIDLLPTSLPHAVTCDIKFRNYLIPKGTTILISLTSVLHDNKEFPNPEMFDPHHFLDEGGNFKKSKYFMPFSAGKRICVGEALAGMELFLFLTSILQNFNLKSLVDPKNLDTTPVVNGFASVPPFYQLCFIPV
T4 sequence (P33261 whole entry): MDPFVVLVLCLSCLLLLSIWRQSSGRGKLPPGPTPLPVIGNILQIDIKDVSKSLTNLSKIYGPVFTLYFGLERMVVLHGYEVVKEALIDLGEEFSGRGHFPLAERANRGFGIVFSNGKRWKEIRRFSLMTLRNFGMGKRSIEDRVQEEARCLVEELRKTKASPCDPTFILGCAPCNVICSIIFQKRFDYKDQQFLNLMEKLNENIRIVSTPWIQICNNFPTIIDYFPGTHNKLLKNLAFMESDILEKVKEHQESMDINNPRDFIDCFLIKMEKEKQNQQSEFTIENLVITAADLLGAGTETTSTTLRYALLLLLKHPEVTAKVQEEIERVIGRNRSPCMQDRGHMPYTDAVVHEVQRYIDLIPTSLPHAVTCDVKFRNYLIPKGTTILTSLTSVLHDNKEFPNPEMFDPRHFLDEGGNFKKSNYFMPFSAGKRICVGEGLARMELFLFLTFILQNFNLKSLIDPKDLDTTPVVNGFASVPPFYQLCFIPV
T6 sequence (P08684 whole entry): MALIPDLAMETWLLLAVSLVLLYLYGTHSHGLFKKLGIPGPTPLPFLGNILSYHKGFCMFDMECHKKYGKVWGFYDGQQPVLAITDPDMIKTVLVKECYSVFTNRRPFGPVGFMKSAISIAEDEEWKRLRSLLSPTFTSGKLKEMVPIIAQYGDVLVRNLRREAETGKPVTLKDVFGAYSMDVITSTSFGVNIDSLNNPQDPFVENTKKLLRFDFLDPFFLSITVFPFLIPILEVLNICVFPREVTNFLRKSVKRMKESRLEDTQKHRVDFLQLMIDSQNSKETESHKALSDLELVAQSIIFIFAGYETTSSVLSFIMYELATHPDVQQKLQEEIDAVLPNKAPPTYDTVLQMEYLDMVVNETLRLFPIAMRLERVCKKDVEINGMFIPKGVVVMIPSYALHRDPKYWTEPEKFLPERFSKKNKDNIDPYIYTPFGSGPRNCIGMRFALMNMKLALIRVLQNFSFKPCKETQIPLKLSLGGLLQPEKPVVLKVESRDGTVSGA

How did the IC50 (CYP2C9) turn out when `O=C1C=C(c2c(-n3cnnn3)ccc(Cl)c2F)C[C@H]2CC[C@@H](c3ncc(-c4ccnc(CO)c4F)[nH]3)N12` [Compound of formula (I-A), (3S,8aR)-7-(3-Chloro-2-fluoro-6-(1H-tetrazol-1-yl)phenyl)-3-(5-(3-fluoro-2-(hydroxymethyl)pyridin-4-yl)-1H-imidazol-2-yl)-2,3,8,8a-tetrahydroindolizin-5(1H)-one] was run?
The IC50 was greater than 20 µM.

And the IC50 (CYP2C8)?
Its IC50 is greater than 20 µM.

What about the IC50 (CYP2D6) of the same compound?
The IC50 was greater than 20 µM.

And the IC50 (CYP2C19)?
The IC50 was greater than 20 µM.

And the IC50 (CYP1A2)?
Its IC50 is greater than 20 µM.

And the IC50 (CYP3A4)?
Its IC50 is 14.4 µM.
